The results in this text go back to ChEMBL document CHEMBL3112462, “2-acylamino-5-nitro-1,3-thiazoles: preparation and in vitro bioevaluation against four neglected protozoan parasites” (Bioorg Med Chem, 2014).

Data set [1] concerns Trichomonas vaginalis. Nature of the data set: Antimicrobial activity against Trichomonas vaginalis GT3 incubated for 48 hrs followed by compound washout measured after 48 hrs. It counts as functional, organism-based. To be noted: GT3, 48 h.
Data set [2] has as its system Giardia intestinalis. Nature of the data set: Ratio of metronidazole IC50 to compound IC50 for Giardia intestinalis IMSS:0696:1. The format is functional, Giardia duodenalis.
Data set [3] can be described thus: Cytotoxicity against African green monkey Vero cells assessed as cell viability after 48 hrs by SRB assay. The note with it: chlorocebus sabaeus. The format is cell-based.
In data set [4] the test system is Trypanosoma cruzi. Nature of the data set: Antimicrobial activity against epimastigote stage of Trypanosoma cruzi MHOM/MX/1994/Ninoa clinical isolate after 72 hrs by Neubauer chamber analysis. The format is functional, organism-based.
Data set [5] has as its system Giardia intestinalis. Nature of the data set: Antimicrobial activity against Giardia intestinalis IMSS:0696:1 incubated for 48 hrs followed by compound washout measured after 48 hrs. The format is functional, organism-based. The note with it: Giardia duodenalis, IMSS:0696:1, 48 h.
Data set [6] deals with Leishmania amazonensis. Briefly: Antimicrobial activity against promastigote stage of Leishmania amazonensis IFLA/BR/67/PH-8 clinical isolate after 72 hrs by Neubauer chamber analysis. It counts as functional, organism-based. To be noted: IFLA/BR/67/PH-8, 72 h.
A short description of data set [7]: Selectivity index, ratio of CC50 for African green monkey Vero cells to IC50 for Trichomonas vaginalis GT3. The format is functional.
Data set [8] is described as follows: Selectivity index, ratio of CC50 for African green monkey Vero cells to IC50 for Giardia intestinalis IMSS:0696:1. It counts as functional.
In data set [9] the test system is Trichomonas vaginalis. Nature of the data set: Ratio of metronidazole IC50 to compound IC50 for Trichomonas vaginalis GT3. The format is functional.
Data set [10] concerns Leishmania amazonensis. Briefly: Ratio of pentamidine IC50 to compound IC50 for promastigote stage of Leishmania amazonensis IFLA/BR/67/PH-8 clinical isolate. It counts as functional.
Data set [11] relates to Trypanosoma cruzi. Nature of the data set: Ratio of benznidazole IC50 to compound IC50 for epimastigote stage of Trypanosoma cruzi MHOM/MX/1994/Ninoa clinical isolate. The format is functional.

Consider `CCCCC(=O)Nc1ncc([N+](=O)[O-])s1`, for which the IC50 in the data set with Trichomonas vaginalis [1] (read-out: IC50) is 0.305 µM; with Trichomonas vaginalis [1] (read-out: pIC50 (converted)), 0.316 µM; with Trypanosoma cruzi [4], more than 50 µM; with Giardia intestinalis [5] (read-out: IC50) it was 0.398 µM; in the data set on Giardia intestinalis [5] (read-out: pIC50 (converted)) it was 0.398 µM; with Leishmania amazonensis [6], more than 50 µM. Besides, in the data set with Giardia intestinalis [2], the “Ratio IC50” value is recorded as 11. For the same compound, the CC50 (commonly the concentration at which the toxic effect on the cells reaches its halfway point) at 48 h in [3] was more than 1000 µM.
For the compound `O=C(Nc1ccccc1)Nc1ncc([N+](=O)[O-])s1`, the CC50 at 48 h in data set [3] is more than 1000 µM. For the same compound, the IC50 was more than 50 µM in the data set with Trypanosoma cruzi [4], 2.57 µM in the data set with Giardia intestinalis [5] (read-out: IC50), 2.57 µM in the data set on Giardia intestinalis [5] (read-out: pIC50 (converted)) and 38.5 µM with Leishmania amazonensis [6].
For `O=C(Nc1ncc([N+](=O)[O-])s1)NC1CCCCC1`, the IC50 was 1.65 µM in the data set on Trichomonas vaginalis [1] (read-out: IC50); 2 µM with Trichomonas vaginalis [1] (read-out: pIC50 (converted)); more than 50 µM with Trypanosoma cruzi [4]; 0.359 µM in the data set on Giardia intestinalis [5] (read-out: IC50); 0.363 µM with Giardia intestinalis [5] (read-out: pIC50 (converted)); more than 50 µM in the data set on Leishmania amazonensis [6]. Also, in the data set with Giardia intestinalis [2], the “Ratio IC50” value turned out to be 11. Further, the CC50 at 48 h in [3] is more than 1000 µM.
As for `O=C(Nc1ccc(Cl)cc1)Nc1ncc([N+](=O)[O-])s1`, the IC50 with Trichomonas vaginalis [1] (read-out: IC50) was 1.03 µM; in the data set on Trichomonas vaginalis [1] (read-out: pIC50 (converted)), 1.26 µM; with Trypanosoma cruzi [4] it was more than 50 µM; in the data set on Giardia intestinalis [5] (read-out: IC50), 0.577 µM; with Giardia intestinalis [5] (read-out: pIC50 (converted)) it was 0.589 µM; in the data set on Leishmania amazonensis [6] it was 37.2 µM. Also, in the data set with Giardia intestinalis [2], the “Ratio IC50” value was found to be 11. The CC50 at 48 h in data set [3] was more than 1000 µM.
As to `O=C(Nc1ccc(F)cc1)Nc1ncc([N+](=O)[O-])s1`, the IC50 was 1.23 µM in the data set with Trichomonas vaginalis [1] (read-out: IC50); 1.26 µM with Trichomonas vaginalis [1] (read-out: pIC50 (converted)); more than 50 µM in the data set with Trypanosoma cruzi [4]; 7.83 µM with Giardia intestinalis [5] (read-out: IC50); 7.94 µM in the data set with Giardia intestinalis [5] (read-out: pIC50 (converted)); more than 50 µM in the data set with Leishmania amazonensis [6]. The CC50 at 48 h in data set [3] was more than 1000 µM.
For `COc1ccc(NC(=O)Nc2ncc([N+](=O)[O-])s2)cc1`, the IC50 in the data set on Trichomonas vaginalis [1] (read-out: IC50) was 1.3 µM; with Trichomonas vaginalis [1] (read-out: pIC50 (converted)) it was 1.58 µM; in the data set with Trypanosoma cruzi [4], more than 50 µM; with Giardia intestinalis [5] (read-out: IC50) it was 29.1 µM; with Giardia intestinalis [5] (read-out: pIC50 (converted)) it was 29.5 µM; in the data set on Leishmania amazonensis [6], 32.2 µM.
Consider `CCOc1ccc(NC(=O)Nc2ncc([N+](=O)[O-])s2)cc1`, for which the IC50 in the data set on Trichomonas vaginalis [1] (read-out: IC50) is 0.282 µM; in the data set on Trichomonas vaginalis [1] (read-out: pIC50 (converted)) it was 0.316 µM; in the data set on Trypanosoma cruzi [4] it was more than 50 µM; in the data set on Giardia intestinalis [5] (read-out: IC50), 3.75 µM; in the data set with Giardia intestinalis [5] (read-out: pIC50 (converted)), 3.8 µM; with Leishmania amazonensis [6], more than 50 µM. Further, the CC50 at 48 h in data set [3] is more than 1000 µM.
Turning to `CCCCOc1ccc(NC(=O)Nc2ncc([N+](=O)[O-])s2)cc1`, the IC50 in the data set on Trichomonas vaginalis [1] (read-out: IC50) is 0.387 µM; with Trichomonas vaginalis [1] (read-out: pIC50 (converted)) it was 0.398 µM; in the data set on Trypanosoma cruzi [4], more than 50 µM; with Giardia intestinalis [5] (read-out: IC50), 1.8 µM; in the data set with Giardia intestinalis [5] (read-out: pIC50 (converted)), 1.82 µM; with Leishmania amazonensis [6] it was more than 50 µM. Moreover, the CC50 at 48 h in data set [3] stood at 58 µM.
Turning to `O=C(Nc1ccc([N+](=O)[O-])cc1)Nc1ncc([N+](=O)[O-])s1`, the IC50 is 0.958 µM with Trichomonas vaginalis [1] (read-out: IC50); 1 µM with Trichomonas vaginalis [1] (read-out: pIC50 (converted)); more than 50 µM in the data set with Trypanosoma cruzi [4]; 15.3 µM with Giardia intestinalis [5] (read-out: IC50); 15.5 µM in the data set with Giardia intestinalis [5] (read-out: pIC50 (converted)); more than 50 µM in the data set on Leishmania amazonensis [6].
On to `CCCCCCCCCCCCCCCC(=O)Nc1ncc([N+](=O)[O-])s1`, for which the IC50 in the data set with Trichomonas vaginalis [1] (read-out: IC50) was 2.58 µM; with Trichomonas vaginalis [1] (read-out: pIC50 (converted)) it was 3.16 µM; in the data set with Trypanosoma cruzi [4] it was more than 50 µM; in the data set with Giardia intestinalis [5] (read-out: IC50), 1.63 µM; in the data set with Giardia intestinalis [5] (read-out: pIC50 (converted)) it was 1.66 µM; in the data set on Leishmania amazonensis [6], more than 50 µM. Also, in data set [3], the CC50 at 48 h was more than 1000 µM.
In the case of `COC(=O)Nc1ncc([N+](=O)[O-])s1`, the IC50 was 0.081 µM in the data set with Trichomonas vaginalis [1] (read-out: IC50); 0.1 µM in the data set with Trichomonas vaginalis [1] (read-out: pIC50 (converted)); more than 50 µM with Trypanosoma cruzi [4]; 0.01 µM in the data set with Giardia intestinalis [5] (read-out: IC50); 0.01 µM with Giardia intestinalis [5] (read-out: pIC50 (converted)); more than 50 µM in the data set with Leishmania amazonensis [6]. The “Ratio IC50” value in the data set on Giardia intestinalis [2] is reported as 536; in the data set with Trichomonas vaginalis [9], 4. Further, the “Ratio CC50/IC50” value in data set [7] was found to be 30407; in data set [8], 246300. Besides, the CC50 at 48 h in data set [3] amounted to 2460 µM.
With `CCOC(=O)C(=O)Nc1ncc([N+](=O)[O-])s1`, the IC50 in the data set with Trichomonas vaginalis [1] (read-out: IC50) is 0.01 µM; in the data set on Trichomonas vaginalis [1] (read-out: pIC50 (converted)), 0.01 µM; in the data set on Trypanosoma cruzi [4], more than 50 µM; with Giardia intestinalis [5] (read-out: IC50), 6.41 µM; with Giardia intestinalis [5] (read-out: pIC50 (converted)) it was 6.46 µM; with Leishmania amazonensis [6] it was more than 50 µM. Besides, the “Ratio CC50/IC50” value in [7] was 141500; in data set [8], 220. In addition, in data set [3], the CC50 at 48 h amounted to 1420 µM. Further, the “Ratio IC50” value in the data set with Trichomonas vaginalis [9] is on record as 29.
Take `Nc1ncc([N+](=O)[O-])s1`: the IC50 in the data set on Trichomonas vaginalis [1] (read-out: IC50) is 52.9 µM; in the data set on Trichomonas vaginalis [1] (read-out: pIC50 (converted)) it was 63.1 µM; in the data set on Trypanosoma cruzi [4], more than 50 µM; in the data set with Giardia intestinalis [5] (read-out: IC50), 29.6 µM; in the data set with Giardia intestinalis [5] (read-out: pIC50 (converted)) it was 27.5 µM; in the data set with Leishmania amazonensis [6] it was more than 50 µM. Also, in data set [3], the CC50 at 48 h came to 441 µM.
On to `O=C(Cn1ccnc1[N+](=O)[O-])NCc1ccccc1` [BENZNIDAZOLE], for which the CC50 at 48 h in data set [3] came out at 14 µM. The same compound showed an IC50 in the data set on Leishmania amazonensis [6] of more than 50 µM.
As to `Cc1ncc([N+](=O)[O-])n1CCO` [METRONIDAZOLE], the IC50 was 0.316 µM with Trichomonas vaginalis [1] (read-out: pIC50 (converted)), more than 50 µM in the data set on Trypanosoma cruzi [4] and more than 50 µM in the data set on Leishmania amazonensis [6]. In addition, the CC50 at 48 h in data set [3] was determined as 387 µM.
`CC(=O)Oc1ccccc1C(=O)Nc1ncc([N+](=O)[O-])s1` [NITAZOXANIDE]: the IC50 in the data set with Trichomonas vaginalis [1] (read-out: pIC50 (converted)) was 0.0794 µM; in the data set with Giardia intestinalis [5] (read-out: pIC50 (converted)), 1.23 µM; with Leishmania amazonensis [6], 7.23 µM. In addition, the “Ratio IC50” value in the data set on Leishmania amazonensis [10] and in the data set with Trypanosoma cruzi [11] was 2 each time. In addition, the CC50 at 48 h in data set [3] amounted to 833 µM.
Take `CC(=O)Nc1ncc([N+](=O)[O-])s1` [NITHIAMIDE]: the IC50 in the data set with Trichomonas vaginalis [1] (read-out: IC50) is 0.022 µM; in the data set with Trichomonas vaginalis [1] (read-out: pIC50 (converted)), 0.0251 µM; in the data set with Trypanosoma cruzi [4] it was more than 50 µM; with Giardia intestinalis [5] (read-out: IC50), 0.49 µM; with Giardia intestinalis [5] (read-out: pIC50 (converted)) it was 0.501 µM; in the data set with Leishmania amazonensis [6], more than 50 µM. Further, the “Ratio IC50” value with Giardia intestinalis [2] stood at 11; in the data set with Trichomonas vaginalis [9], 13. Moreover, the CC50 at 48 h in data set [3] was more than 1000 µM.
Turning to `N=C(N)c1ccc(OCCCCCOc2ccc(C(=N)N)cc2)cc1` [PENTAMIDINE], in data set [3], the CC50 at 48 h stood at 47 µM. Besides, the IC50 with Trypanosoma cruzi [4] was more than 50 µM; in the data set on Leishmania amazonensis [6] it was 14.3 µM.
